Tested on: senescent human neonatal dermal fibroblasts
Assay: Crystal violet staining of shRNA-transduced senescent fibroblasts (FIG. 4)
Assay type: cell-based
Conditions: lentiviral shRNA, puromycin 72 hours, crystal violet at 20 days; senescence by bleomycin 10 μg/ml 24 hr + 10 days
Experimental: FIG. 4. Effect of selected shRNAs on viability of proliferating and senescent human neonatal dermal fibroblasts. Senescence was induced by treatment with bleomycin (10 μg/ml) for 24 hr followed by incubation for 10 days to establish senescent phenotype. (1) The proliferating and senescent cells were transduced with lentiviruses carrying both shRNA and mCherry constructs. Transduced cells were selected with puromycin for 72 hours and the presence of shRNA construct was confirmed by microscopic detection of mCherry fluorescence (see example of mCherry fluorescence in FIG. 4, panel 1). In 8 days for proliferating and 20 days for senescent cells, the cells were stained with crystal violet dye. The images of the live/dead cells were obtain using a digital camera (panels 2-4).
To confirm universal activity of identified target genes across different senescence models 60 candidate shRNA identified in all primary screenings were transduced to a secondary models of senescence: human diploid dermal fibroblasts induced to senescence by bleomycin treatment (DNA-damage induction) or senescence was induced by replicative exhaustion (replicative senescence).

Substance | effect on viability of senescent cells
POU5F1: shRNA coding sequence targeting POU5F1 (DNA TCATTCACTAAGGAAGGAATTGTTAATATTCATAGCAATTCCTTCCTTAGTGAATGA) | critical for viability of senescent cells
FGF1: shRNA coding sequence targeting FGF1 (DNA CCTGATAACAAGTAAGGATATGTTAATATTCATAGCATATCCTTGCTTGTTATCAGG) | critical for viability of senescent cells

Source: patent US9909125B2, “Molecular targets for selective eradication of senescent cells” (Everon Biosciences, Inc., priority 2013, dated 2018)
